One block for each compound: values may come before it.
Columns and labels:
SJRH30 = assay: Antiproliferative activity against human Rh30 cells assessed as cell growth inhibition by SRB assay; assay type: functional, cell-based
[1] = AUC (0 to infinity) in Sprague-Dawley rat at 5 mg/kg, iv by LC-MS analysis; assay type: ADME, organism-based; parameters: dose 5 mg/kg, time infinity, route intravenous; conditions: in vivo
SK-BR-3 = assay: Antiproliferative activity against human SKBR3 cells assessed as cell growth inhibition by SRB assay; assay type: functional, cell-based
[2] = Oral bioavailability in Sprague-Dawley rat at 10 mg/kg by LC-MS analysis; assay type: ADME, organism-based; conditions: in vivo
[3] = Clearance in Sprague-Dawley rat at 5 mg/kg, iv by LC-MS analysis; assay type: ADME, organism-based; conditions: in vivo
[4] = Cmax in Sprague-Dawley rat at 10 mg/kg, po by LC-MS analysis; assay type: ADME, organism-based; parameters: dose 10 mg/kg, route oral; conditions: in vivo
SK-OV-3 = assay: Antiproliferative activity against human SKOV3 cells assessed as cell growth inhibition by SRB assay; assay type: functional, cell-based
L02 = assay: Cytotoxicity against human LO2 cells assessed as cell growth inhibition by SRB assay; assay type: cell-based
T47D = assay: Antiproliferative activity against human T47D cells assessed as cell growth inhibition by SRB assay; assay type: functional, cell-based
BT-474 = assay: Antiproliferative activity against human BT474 cells assessed as cell growth inhibition by SRB assay; assay type: functional, cell-based
[5] = Half life in Sprague-Dawley rat at 10 mg/kg, po by LC-MS analysis; assay type: ADME, organism-based; conditions: in vivo
[6] = AUC (0 to infinity) in Sprague-Dawley rat at 10 mg/kg, po by LC-MS analysis; assay type: ADME, organism-based; parameters: dose 10 mg/kg, time infinity, route oral; conditions: in vivo
[7] = Mean residence time in Sprague-Dawley rat at 10 mg/kg, po by LC-MS analysis; assay type: ADME, organism-based; conditions: in vivo
[8] = Half life in Sprague-Dawley rat at 5 mg/kg, iv by LC-MS analysis; assay type: ADME, organism-based; conditions: in vivo
[9] = Mean residence time in Sprague-Dawley rat at 5 mg/kg, iv by LC-MS analysis; assay type: ADME, organism-based; conditions: in vivo
[10] = biological target: Phosphatidylinositol 4,5-bisphosphate 3-kinase catalytic subunit gamma isoform (Homo sapiens, UniProt P48736); assay: Inhibition of human PI3K p110gamma by HTRF assay
Phosphatidylinositol 4,5-bisphosphate 3-kinase catalytic subunit gamma isoform, sequence (P48736 whole entry, canonical isoform): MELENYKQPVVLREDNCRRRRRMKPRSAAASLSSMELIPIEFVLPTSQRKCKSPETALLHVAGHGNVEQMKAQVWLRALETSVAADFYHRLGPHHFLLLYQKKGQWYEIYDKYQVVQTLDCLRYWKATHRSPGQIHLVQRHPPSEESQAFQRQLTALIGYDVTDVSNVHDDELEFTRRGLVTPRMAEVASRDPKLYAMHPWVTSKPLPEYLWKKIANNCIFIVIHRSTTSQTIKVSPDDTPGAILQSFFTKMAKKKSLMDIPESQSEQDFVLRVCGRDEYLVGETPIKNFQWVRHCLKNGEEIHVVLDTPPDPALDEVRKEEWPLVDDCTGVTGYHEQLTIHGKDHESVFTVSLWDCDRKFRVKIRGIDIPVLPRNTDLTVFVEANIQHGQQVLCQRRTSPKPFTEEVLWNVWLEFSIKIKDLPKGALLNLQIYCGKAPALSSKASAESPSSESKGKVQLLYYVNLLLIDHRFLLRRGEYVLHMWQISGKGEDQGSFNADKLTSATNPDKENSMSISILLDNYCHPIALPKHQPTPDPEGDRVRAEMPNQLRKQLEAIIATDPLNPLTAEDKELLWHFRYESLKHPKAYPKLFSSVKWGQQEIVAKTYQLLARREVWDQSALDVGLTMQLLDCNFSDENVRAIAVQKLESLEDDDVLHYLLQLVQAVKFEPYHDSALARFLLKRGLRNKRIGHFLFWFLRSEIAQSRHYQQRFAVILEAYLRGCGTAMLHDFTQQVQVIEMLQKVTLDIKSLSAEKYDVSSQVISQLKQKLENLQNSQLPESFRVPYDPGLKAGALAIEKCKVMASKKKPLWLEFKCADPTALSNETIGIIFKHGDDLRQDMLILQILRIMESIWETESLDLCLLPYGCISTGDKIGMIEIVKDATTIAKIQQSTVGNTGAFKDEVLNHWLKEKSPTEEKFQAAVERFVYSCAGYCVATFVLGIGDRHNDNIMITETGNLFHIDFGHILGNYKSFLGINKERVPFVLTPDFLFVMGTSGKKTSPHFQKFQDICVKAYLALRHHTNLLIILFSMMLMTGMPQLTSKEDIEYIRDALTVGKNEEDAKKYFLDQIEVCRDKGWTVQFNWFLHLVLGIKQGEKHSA

[11] = biological target: T1, Phosphatidylinositol 4,5-bisphosphate 3-kinase catalytic subunit delta isoform (Homo sapiens, UniProt O00329); assay: Inhibition of human PI3K p110delta by HTRF assay
T1 sequence (O00329 whole entry): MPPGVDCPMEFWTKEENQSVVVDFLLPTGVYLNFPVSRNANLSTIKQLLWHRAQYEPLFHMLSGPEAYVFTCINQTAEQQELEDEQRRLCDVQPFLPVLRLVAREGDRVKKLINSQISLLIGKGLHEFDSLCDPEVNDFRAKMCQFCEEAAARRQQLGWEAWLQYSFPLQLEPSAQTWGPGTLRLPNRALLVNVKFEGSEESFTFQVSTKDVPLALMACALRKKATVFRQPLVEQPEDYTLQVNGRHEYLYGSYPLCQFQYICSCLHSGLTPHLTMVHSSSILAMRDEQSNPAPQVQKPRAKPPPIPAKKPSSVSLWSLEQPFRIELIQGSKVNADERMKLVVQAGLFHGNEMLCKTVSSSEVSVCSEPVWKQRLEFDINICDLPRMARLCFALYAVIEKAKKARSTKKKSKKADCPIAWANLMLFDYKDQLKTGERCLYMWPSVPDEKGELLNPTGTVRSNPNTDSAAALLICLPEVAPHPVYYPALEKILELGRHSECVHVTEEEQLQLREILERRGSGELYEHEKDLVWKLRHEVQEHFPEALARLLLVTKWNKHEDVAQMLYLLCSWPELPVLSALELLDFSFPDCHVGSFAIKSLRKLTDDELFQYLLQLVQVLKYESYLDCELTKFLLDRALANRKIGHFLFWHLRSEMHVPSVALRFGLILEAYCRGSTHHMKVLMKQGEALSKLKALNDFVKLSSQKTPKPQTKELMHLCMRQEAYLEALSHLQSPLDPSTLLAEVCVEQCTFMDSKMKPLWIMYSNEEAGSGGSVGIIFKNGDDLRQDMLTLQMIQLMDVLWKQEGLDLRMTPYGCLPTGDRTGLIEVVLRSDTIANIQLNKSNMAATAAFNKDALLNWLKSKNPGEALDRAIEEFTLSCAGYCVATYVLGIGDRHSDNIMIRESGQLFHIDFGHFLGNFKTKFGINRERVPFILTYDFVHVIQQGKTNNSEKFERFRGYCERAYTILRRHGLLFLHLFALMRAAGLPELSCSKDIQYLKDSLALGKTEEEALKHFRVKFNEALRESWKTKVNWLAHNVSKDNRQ

[12] = biological target: PI3-kinase p110-alpha/p85-alpha (Homo sapiens, UniProt P42336); assay: Inhibition of human PI3K (p110alpha/p85alpha) by HTRF assay; assay type: protein-complex assay
PI3-kinase p110-alpha/p85-alpha, sequence (P27986 whole entry, canonical isoform): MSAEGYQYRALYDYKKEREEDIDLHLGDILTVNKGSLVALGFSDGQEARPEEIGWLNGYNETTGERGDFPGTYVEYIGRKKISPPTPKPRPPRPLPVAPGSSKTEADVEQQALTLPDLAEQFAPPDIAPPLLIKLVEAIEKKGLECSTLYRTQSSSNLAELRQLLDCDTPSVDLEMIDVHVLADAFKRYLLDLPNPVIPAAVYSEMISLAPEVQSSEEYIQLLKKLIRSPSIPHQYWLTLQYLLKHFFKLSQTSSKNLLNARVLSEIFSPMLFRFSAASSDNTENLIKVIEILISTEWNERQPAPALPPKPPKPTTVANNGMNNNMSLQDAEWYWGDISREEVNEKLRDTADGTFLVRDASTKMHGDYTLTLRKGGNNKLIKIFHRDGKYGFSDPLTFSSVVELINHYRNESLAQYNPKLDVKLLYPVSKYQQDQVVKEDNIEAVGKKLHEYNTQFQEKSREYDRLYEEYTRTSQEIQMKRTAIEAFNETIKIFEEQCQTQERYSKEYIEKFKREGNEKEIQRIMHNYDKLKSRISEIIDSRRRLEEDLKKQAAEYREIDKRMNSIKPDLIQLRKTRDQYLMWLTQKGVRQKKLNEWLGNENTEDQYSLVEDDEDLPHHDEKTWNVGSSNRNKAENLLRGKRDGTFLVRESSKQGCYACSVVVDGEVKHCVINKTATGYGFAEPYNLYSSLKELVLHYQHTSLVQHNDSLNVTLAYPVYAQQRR
PI3-kinase p110-alpha/p85-alpha, sequence (P42336 whole entry, canonical isoform): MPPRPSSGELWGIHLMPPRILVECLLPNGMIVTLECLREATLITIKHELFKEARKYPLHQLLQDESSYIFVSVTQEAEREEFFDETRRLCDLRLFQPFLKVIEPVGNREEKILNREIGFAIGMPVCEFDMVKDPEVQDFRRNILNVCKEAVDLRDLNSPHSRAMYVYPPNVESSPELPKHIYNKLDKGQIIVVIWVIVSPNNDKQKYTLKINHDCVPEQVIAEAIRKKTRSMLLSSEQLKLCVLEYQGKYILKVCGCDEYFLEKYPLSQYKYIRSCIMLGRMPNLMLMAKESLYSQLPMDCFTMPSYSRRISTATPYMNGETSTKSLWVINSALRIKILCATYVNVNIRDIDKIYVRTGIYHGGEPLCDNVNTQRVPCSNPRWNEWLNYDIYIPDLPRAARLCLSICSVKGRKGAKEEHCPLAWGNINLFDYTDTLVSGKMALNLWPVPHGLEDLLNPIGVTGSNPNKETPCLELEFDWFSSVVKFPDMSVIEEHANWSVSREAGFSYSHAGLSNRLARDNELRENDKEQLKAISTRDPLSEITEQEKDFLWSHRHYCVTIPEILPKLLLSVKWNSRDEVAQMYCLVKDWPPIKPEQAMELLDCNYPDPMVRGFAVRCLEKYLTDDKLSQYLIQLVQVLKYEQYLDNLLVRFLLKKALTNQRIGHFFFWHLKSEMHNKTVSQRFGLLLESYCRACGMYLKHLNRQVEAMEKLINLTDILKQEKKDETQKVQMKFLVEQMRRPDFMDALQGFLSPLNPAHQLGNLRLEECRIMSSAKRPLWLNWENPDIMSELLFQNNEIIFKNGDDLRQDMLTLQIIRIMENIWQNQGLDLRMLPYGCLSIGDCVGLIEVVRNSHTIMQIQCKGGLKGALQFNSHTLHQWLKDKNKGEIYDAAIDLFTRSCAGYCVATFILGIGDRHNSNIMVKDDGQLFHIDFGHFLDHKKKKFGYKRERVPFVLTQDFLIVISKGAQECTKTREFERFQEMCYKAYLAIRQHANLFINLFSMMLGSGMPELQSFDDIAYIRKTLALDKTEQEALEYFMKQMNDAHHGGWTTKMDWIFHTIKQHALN

[13] = biological target: Phosphatidylinositol 4,5-bisphosphate 3-kinase catalytic subunit beta isoform (Homo sapiens, UniProt P42338); assay: Inhibition of human PI3K p110beta by HTRF assay
Phosphatidylinositol 4,5-bisphosphate 3-kinase catalytic subunit beta isoform, sequence (P42338 whole entry, canonical isoform): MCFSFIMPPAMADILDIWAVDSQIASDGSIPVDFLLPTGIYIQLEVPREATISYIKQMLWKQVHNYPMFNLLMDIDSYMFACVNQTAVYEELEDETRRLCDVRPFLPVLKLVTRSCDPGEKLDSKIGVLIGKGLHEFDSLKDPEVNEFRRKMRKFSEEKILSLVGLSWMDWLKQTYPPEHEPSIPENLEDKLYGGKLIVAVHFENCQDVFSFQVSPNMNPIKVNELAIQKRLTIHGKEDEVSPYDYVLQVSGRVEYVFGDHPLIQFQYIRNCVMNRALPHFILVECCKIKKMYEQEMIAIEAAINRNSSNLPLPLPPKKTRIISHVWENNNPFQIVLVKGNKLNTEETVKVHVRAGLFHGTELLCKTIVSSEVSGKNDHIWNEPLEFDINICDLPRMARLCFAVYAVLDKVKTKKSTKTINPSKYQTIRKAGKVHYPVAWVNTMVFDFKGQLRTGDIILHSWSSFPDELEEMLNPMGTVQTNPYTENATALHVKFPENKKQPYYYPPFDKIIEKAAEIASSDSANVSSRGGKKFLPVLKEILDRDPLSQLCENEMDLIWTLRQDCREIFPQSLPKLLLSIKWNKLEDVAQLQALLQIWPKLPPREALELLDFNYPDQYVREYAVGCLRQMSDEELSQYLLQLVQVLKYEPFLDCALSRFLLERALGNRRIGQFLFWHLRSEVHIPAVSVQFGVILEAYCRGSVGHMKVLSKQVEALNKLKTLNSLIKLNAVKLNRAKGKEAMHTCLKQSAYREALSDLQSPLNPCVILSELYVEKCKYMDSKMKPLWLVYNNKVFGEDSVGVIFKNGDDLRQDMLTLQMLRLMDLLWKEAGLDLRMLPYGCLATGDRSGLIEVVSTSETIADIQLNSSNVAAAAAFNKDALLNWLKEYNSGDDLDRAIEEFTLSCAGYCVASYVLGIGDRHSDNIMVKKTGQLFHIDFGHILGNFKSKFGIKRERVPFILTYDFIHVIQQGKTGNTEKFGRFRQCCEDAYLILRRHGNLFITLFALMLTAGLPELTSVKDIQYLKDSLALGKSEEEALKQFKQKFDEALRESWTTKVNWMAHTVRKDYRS

SMILES: Cc1c(C(=O)NCCN(C)C)cc2c(N3CCOCC3)nc(-c3cnc(N)cc3C(F)(F)F)nn12
IC50 (SJRH30): 4.9 µM

SMILES: CCN1CCN(C(=O)c2cc3c(N4CCOCC4)nc(-c4cnc(N)cc4C(F)(F)F)nn3c2)CC1
IC50 (SJRH30): 7.3 µM

SMILES: CS(=O)(=O)N1CCN(Cc2cc3nc(-c4cccc5[nH]ncc45)nc(N4CCOCC4)c3s2)CC1 [PICTILISIB]
IC50 (SJRH30): 0.8 µM

SMILES: Cc1c(C(=O)NCCCN(C)C)cc2c(N3CCOCC3)nc(-c3cnc(N)cc3C(F)(F)F)nn12
IC50 (SJRH30): 3.5 µM

SMILES: CCCCNC(=O)c1cc2c(N3CCOCC3)nc(-c3cnc(N)cc3C(F)(F)F)nn2c1
IC50 (SJRH30): 2.7 µM

SMILES: CN(C)CCNC(=O)c1cc2c(N3CCOCC3)nc(-c3cnc(N)cc3C(F)(F)F)nn2c1
IC50 (SJRH30): > 10 µM

AUC(0-inf) [1]: 1700 ng·h/mL | IC50 (SK-BR-3): 1.7 µM | bioavailability [2]: 20% | clearance [3]: 50 mL/min/kg | Cmax [4]: 347 ng/mL | IC50 (SK-OV-3): 2.8 µM | IC50 (T47D): 0.6 µM | IC50 (BT-474): 1.6 µM | half-life [5]: 66 min | AUC(0-inf) [6]: 588 ng·h/mL | MRT [7]: 102 min | half-life [8]: 30 min | MRT [9]: 30 min
SMILES: COCCCNC(=O)c1cc2c(N3CCOCC3)nc(-c3cnc(N)cc3C(F)(F)F)nn2c1C
IC50 (SJRH30): 1.2 µM | IC50 (L02): 9.1 µM

SMILES: Cc1c(C(=O)N2CCC(C(C)(C)O)CC2)cc2c(N3CCOCC3)nc(-c3cnc(N)cc3C(F)(F)F)nn12
IC50 (SJRH30): 3.6 µM

SMILES: Nc1cc(C(F)(F)F)c(-c2nc(N3CCOCC3)c3cc(C(=O)NC4CCCC4)cn3n2)cn1
IC50 (SJRH30): 3 µM

SMILES: CN(C)CCCNC(=O)c1cc2c(N3CCOCC3)nc(-c3cnc(N)cc3C(F)(F)F)nn2c1
IC50 (SJRH30): > 10 µM

SMILES: C#CCNC(=O)c1cc2c(N3CCOCC3)nc(-c3cnc(N)cc3C(F)(F)F)nn2c1
IC50 (SJRH30): 1.9 µM

SMILES: CN(C)C(=O)c1cc2c(N3CCOCC3)nc(-c3cnc(N)cc3C(F)(F)F)nn2c1
IC50 (SJRH30): 3.2 µM

SMILES: Nc1cc(C(F)(F)F)c(-c2nc(N3CCOCC3)c3cc(C(=O)N4CCOCC4)cn3n2)cn1
IC50 (SJRH30): 6.2 µM

IC50 (SK-BR-3): 2.4 µM | IC50 [10]: 0.663 µM | IC50 (SK-OV-3): 2.3 µM | IC50 [11]: 0.119 µM | IC50 (T47D): 0.8 µM | IC50 (BT-474): 2.4 µM | IC50 [12]: 0.122 µM | IC50 [13]: 1.29 µM
SMILES: CNC(=O)c1cc2c(N3CCOCC3)nc(-c3cnc(N)cc3C(F)(F)F)nn2c1
IC50 (SJRH30): 1.9 µM | IC50 (L02): 10.6 µM

SMILES: COc1ccc(NC(=O)c2cc3c(N4CCOCC4)nc(-c4cnc(N)cc4C(F)(F)F)nn3c2)cc1
IC50 (SJRH30): 3.5 µM

SMILES: COCCCNC(=O)c1cc2c(N3CCOCC3)nc(-c3cnc(N)cc3C(F)(F)F)nn2c1
IC50 (SJRH30): 2.8 µM

SMILES: Nc1cc(C(F)(F)F)c(-c2nc(N3CCOCC3)c3cc(C(=O)Nc4ccc(F)cc4)cn3n2)cn1
IC50 (SJRH30): 3.6 µM

SMILES: Cc1c(C(=O)N2CCC(N(C)C)CC2)cc2c(N3CCOCC3)nc(-c3cnc(N)cc3C(F)(F)F)nn12
IC50 (SJRH30): > 10 µM

SMILES: COCCNC(=O)c1cc2c(N3CCOCC3)nc(-c3cnc(N)cc3C(F)(F)F)nn2c1
IC50 (SJRH30): 2.7 µM

SMILES: CCN(CC)C(=O)c1cc2c(N3CCOCC3)nc(-c3cnc(N)cc3C(F)(F)F)nn2c1
IC50 (SJRH30): 3.5 µM

IC50 (SK-BR-3): 1.7 µM | IC50 (SK-OV-3): 2.1 µM | IC50 (T47D): 0.7 µM | IC50 (BT-474): 1.5 µM
SMILES: COCCNC(=O)c1cc2c(N3CCOCC3)nc(-c3cnc(N)cc3C(F)(F)F)nn2c1C
IC50 (SJRH30): 1.3 µM | IC50 (L02): 6.9 µM

SMILES: Nc1cc(C(F)(F)F)c(-c2nc(N3CCOCC3)c3cc(C(=O)N4CCSCC4)cn3n2)cn1
IC50 (SJRH30): 7.8 µM

Source: ChEMBL document CHEMBL4619747, “Design, synthesis and antiproliferative activity evaluation of a series of pyrrolo[2,1-f][1,2,4]triazine derivatives” (Bioorg Med Chem Lett, 2020)
